Experimental data: publication PMC9749936, “Synthesis and structure–activity relationship studies of N-terminal analogues of the lipopeptide antibiotics brevicidine and laterocidine” (RSC Medicinal Chemistry, 2022)
Bridge positions count the residues as written; N and C are the ends. Square brackets hold non-standard residues; d marks the D form. Peptide text beside a SMILES is read from it. * marks the point of attachment. Palmitoyl = CCCCCCCCCCCCCCCC(=O)*; Myristoyl = CCCCCCCCCCCCCC(=O)*; Lauroyl = CCCCCCCCCCCC(=O)*; Decanoyl = CCCCCCCCCC(=O)*; dOrn = NCCC[C@@H](N)C(=O)O; Orn = NCCC[C@H](N)C(=O)O

Key:
E. coli ATCC 25922 = type: cell-based, Escherichia coli; conditions: ATCC 25922, 18 h
Procedure: (§1) The minimum inhibitory concentrations (MICs) of brevicidine and laterocidine analogues were determined against a panel of clinically relevant ESKAPE pathogens; Escherichia coli (E. coli), Klebsiella pneumoniae (K. pneumoniae), Acinetobacter baumannii (A. baumannii), Pseudomonas aeruginosa (P. aeuroginosa) and Staphylococcus aureus (S. aureus), which cause the majority of nosocomial infections in the United States.[16] […] In this resistance mechanism, the polymyxin target (lipid A) is modified, reducing binding affinity. For this reason, a strain of colistin-resistant E. coli carrying the mcr-1 gene was also included in the panel. […]
(§2) IV. Antimicrobial testing
(§3) All minimum inhibitory concentrations (MICs) were determined according to Clinical and Standards Laboratory Institute (CLSI) guidelines. Blood agar plates were inoculated with glycerol stocks of E. coli ATCC 25922, K. pneumoniae ATCC 13883, A. baumannii ATCC 17961, P. aeruginosa PAO1 and S. aureus USA300. The inoculated agar plates were then incubated for 16 h at 37 °C . Individually grown colonies were subsequently used to inoculate 5 mL aliquots of TSB that were then incubated at 37 °C with shaking at 220 rpm. E. coli 25922 MCR-1 glycerol stock was used to inoculate 5 mL of TSB supplemented with kanamycin that was then incubated for 16 h at 37 °C with shaking at 220 rpm. The next day the culture was diluted 100 fold in TSB supplemented with kanamycin and incubated at 37 °C with shaking at 220 rpm. In parallel, the lipopeptide antibiotics DMSO stocks to be assessed were serially diluted with MHB in polypropylene 96-well plates (50 µL in each well). Colistin sulfate stocks were dissolved in water before being diluted with MHB. Aliquots of the inoculated TSB were incubated until an OD600 of around 0.5 was reached. The bacterial suspensions were then diluted with MHB (2 x 10^5 CFU mL-1) and added to the microplates containing the test compounds (50 µL to each well). The well-plates were sealed with an adhesive membrane and after 18 h of incubation at 37 °C with shaking at 600 rpm, the wells were visually inspected for bacterial […]
(§4) growth. MIC values reported are based on three technical replicates and defined as the lowest concentration of the compound that prevented visible growth of bacteria. […]
(§5) The values obtained from a read-out at 415 nm were corrected for background (negative control) and transformed to a percentage relative to the positive control.
(§6) VI. HPLC and HRMS analysis of peptides
(§7) Peptide Name Chemical Calcd Mass found Calcd Overall […]

A. baumannii ATCC 17961 = type: cell-based, Acinetobacter baumannii; conditions: ATCC 17961, 18 h
Procedure: as §1, §2, §3, §4, §5, §6, §7

E. coli ATCC 25922 MCR-1 = type: cell-based, Escherichia coli; conditions: colistin-resistant strain carrying mcr-1; CLSI broth microdilution in MHB, 18 h at 37 °C, visual inspection; three technical replicates
Procedure: as §1
Colisitin sulfate was purchased from Activate Scientific. Kanamycin monosulfate was purchased from MP Biomedicals. E. coli ATCC 25922, S. aureus USA300 (ATCC BAA1717), K. pneumoniae ATCC 13883 and A. baumannii ATCC 17961 belong to the American Type Culture Collection (ATCC). P. aeruginosa PAO1 was kindly provided by L.H.C. Quarles Van Ufford, Utrecht University, Utrecht, The Netherlands. E. coli ATCC 25922 MCR-1 was transfected in house using the pGDP2-MCR1 plasmid kindly provided by Yong-Xin Li, The University of Hong Kong, Hong Kong, China. Sheep blood agar plates (Ref. PB5039A) were purchased from Thermo Scientific. Tryptic soy broth (Ref. 02-200-500) was purchased from Scharlab. Mueller-Hinton broth (Ref. X927.1) was purchased from Carl Roth. Polypropylene 96-wells plates (Ref. 3879) were purchased from Corning. […]
(10.0 mL). 2-Chlorotrityl (CT) chloride resin (2.00 g, 0.81 mmol g-1) and DIPEA (420 µL, 2.40 mmol) were added. […]
A gradient […]
method for C14 - C16 laterocidine was employed, starting at 100% solvent A for 2 min, ramping up to 70 % solvent B over 45 min, ramping up to 100% solvent B over 1 min, remaining there for 6 min before ramping down to 100% solvent A and remaining there for 5 min. High resolution mass spectrometry (HRMS) spectra of brevicidine peptides were recorded by Analytical Services and Environmental Projects (ASEP) at Queen’s University Belfast on a Waters LCT Premier ToF mass spectrometer using the electrospray ionisation (ESI) technique. HRMS spectra of laterocidine peptides were performed on a Thermo Scientific Dionex UltiMate 3000 HPLC system with a Phenomenex Kinetex C18 (2.6 µm, 2.1 x 150 mm) column at 35 °C and equipped with a diode array detector. The following solvent system, at a flow rate of 0.3 mL/min, was used: solvent A = 0.1% formic acid in water, solvent B = 0.1% formic acid in acetonitrile. A gradient method was employed, starting at 95 % solvent A and 5 % solvent B for 1 min, ramping up to 95 % solvent B over 9 min, ramping up to 98 % solvent B over 1 min, remaining there for 1 min before ramping back down to 95 % solvent A over 2 min and remaining there for 1 min.
The system was connected to a Bruker micrOTOF-Q II mass spectrometer (ESI ionization) calibrated internally with sodium […]
as §2
as §3, with “MHB.” for “MHB. Aliquots of the inoculated TSB were incubated until an OD600 of around 0.5 was reached. The bacterial suspensions were then diluted with MHB (2 x 10^5 CFU mL-1) and added to the microplates containing the test compounds (50 µL to each well). The well-plates were sealed with an adhesive membrane and after 18 h of incubation at 37 °C with shaking at 600 rpm, the wells were visually inspected for bacterial”

S. aureus USA300 = type: cell-based, Staphylococcus aureus; conditions: USA300, 18 h
Procedure: as §1, §2, §3, §4, §5, §6, §7

Sheep red blood cells = type: cell-based; conditions: red cells of sheep, 1 h, 64 μg mL^−1
Procedure: Having ascertained the antimicrobial activity of all synthetic peptides against a panel of ESKAPE pathogens, we next assessed their mammalian toxicity with hemolytic assays using sheep red blood cells. The % hemolysis for all peptides at 64 μg mL^−1 was determined, with the hemolysis induced by the surfactant 0.1% Triton X-100 taken as 100%. […] Hemolysis was <1% for all analogues with a C8 chain or shorter, including the strongest antibacterial peptide C8-Lat (22). Hemolytic activity increased up to C14 (>50% for C14-Lat) and then decreased at longer chain lengths, perhaps due to decreased solubility of peptides or aggregation. […]
Phosphate-Buffered Saline (PBS) containing 0.002% Tween20 (buffer) five times. Then, the red blood cells were normalized to obtain a positive control read-out between 2.5 and 3.0 at 415 nm to stay within the linear range with the maximum sensitivity. A serial dilution of the compounds (128 – 1 µg/mL, 75 µL) was prepared in a 96-well polypropylene plate. The outer border of the plate was filled with 75 µL buffer. Each plate contained a positive control (0.1% Triton-X final concentration, 75 µL) and a negative control (buffer, 75 µL) in triplicate. The normalized blood cells (75 µL) were added and the plates were incubated at 37 °C for 1 h while shaking at 500 rpm. A flat-bottom polystyrene plate with 100 µL buffer in each well was prepared. After incubation, the plates were centrifuged (800 g for 5 min at room temperature) and 25 µL of the supernatant was transferred to their respective wells in the flat-bottom plate. The values obtained from a read-out at 415 nm were corrected for background (negative control) and transformed to a percentage relative to the positive control. […]

P. aeruginosa PAO1 = type: cell-based, Pseudomonas aeruginosa; conditions: PAO1, 18 h
Procedure: as §1, §2, §3, §4, §5, §6, §7

K. pneumoniae ATCC 13883 = type: cell-based, Klebsiella pneumoniae; conditions: ATCC 13883, 18 h
Procedure: as §1, §2, §3, §4, §5, §6, §7

Row | SMILES | Antimicrobial activity (MIC) E. coli ATCC 25922 (E. coli ATCC 25922) [µg/mL] | Antimicrobial activity (MIC) A. baumannii ATCC 17961 (A. baumannii ATCC 17961) [µg/mL] | Antimicrobial activity (MIC) E. coli ATCC 25922 MCR-1 (E. coli ATCC 25922 MCR-1) [µg/mL] | Antimicrobial activity (MIC) S. aureus USA300 (S. aureus USA300) [µg/mL] | % Hemolytic activity, sheep red blood cells (Sheep red blood cells) [%] | Antimicrobial activity (MIC) P. aeruginosa PAO1 (P. aeruginosa PAO1) [µg/mL] | Antimicrobial activity (MIC) K. pneumoniae ATCC 13883 (K. pneumoniae ATCC 13883) [µg/mL]
1 | CCCCCCCCCC(=O)N[C@H](CC(N)=O)C(=O)N[C@H](Cc1ccc(O)cc1)C(=O)N[C@H](Cc1c[nH]c2ccccc12)C(=O)N[C@H](CCCN)C(=O)N[C@@H](CCCN)C(=O)NCC(=O)N[C@H](CCCN)C(=O)N[C@@H](Cc1c[nH]c2ccccc12)C(=O)N[C@@H]1C(=O)N[C@@H]([C@@H](C)CC)C(=O)NCC(=O)N[C@@H](CO)C(=O)O[C@@H]1C [Compound 14] (Decanoyl-[dN][dY][dW][dOrn][Orn]G[dOrn]WTIGS; ester 9-C) | 4 | 4 | 4 | 32 | 6.2 | 8 | 4
2 | CCCCCCCCCCCC(=O)N[C@H](CC(N)=O)C(=O)N[C@H](Cc1ccc(O)cc1)C(=O)N[C@H](Cc1c[nH]c2ccccc12)C(=O)N[C@H](CCCN)C(=O)N[C@@H](CCCN)C(=O)NCC(=O)N[C@H](CCCN)C(=O)N[C@@H](Cc1c[nH]c2ccccc12)C(=O)N[C@@H]1C(=O)N[C@@H]([C@@H](C)CC)C(=O)NCC(=O)N[C@@H](CO)C(=O)O[C@@H]1C [Compound 15] (Lauroyl-[dN][dY][dW][dOrn][Orn]G[dOrn]WTIGS; ester 9-C) | 8 | 4 | 8 | 32 | 13.3 | 16 | 8
3 | CCCCCCCCCCCCCC(=O)N[C@H](CC(N)=O)C(=O)N[C@H](Cc1ccc(O)cc1)C(=O)N[C@H](Cc1c[nH]c2ccccc12)C(=O)N[C@H](CCCN)C(=O)N[C@@H](CCCN)C(=O)NCC(=O)N[C@H](CCCN)C(=O)N[C@@H](Cc1c[nH]c2ccccc12)C(=O)N[C@@H]1C(=O)N[C@@H]([C@@H](C)CC)C(=O)NCC(=O)N[C@@H](CO)C(=O)O[C@@H]1C [Compound 16] (Myristoyl-[dN][dY][dW][dOrn][Orn]G[dOrn]WTIGS; ester 9-C) | 16 | 4 | 16 | >32 | 18.0 | 32 | 32
4 | CCCCCCCCCCCCCCCC(=O)N[C@H](CC(N)=O)C(=O)N[C@H](Cc1ccc(O)cc1)C(=O)N[C@H](Cc1c[nH]c2ccccc12)C(=O)N[C@H](CCCN)C(=O)N[C@@H](CCCN)C(=O)NCC(=O)N[C@H](CCCN)C(=O)N[C@@H](Cc1c[nH]c2ccccc12)C(=O)N[C@@H]1C(=O)N[C@@H]([C@@H](C)CC)C(=O)NCC(=O)N[C@@H](CO)C(=O)O[C@@H]1C [Compound 17] (Palmitoyl-[dN][dY][dW][dOrn][Orn]G[dOrn]WTIGS; ester 9-C) | >32 | 32 | >32 | >32 | 13.3 | >32 | >32
5 | CC[C@H](C)[C@@H]1NC(=O)[C@@H](NC(=O)[C@H](Cc2c[nH]c3ccccc23)NC(=O)[C@@H](CCCN)NC(=O)CNC(=O)[C@H](CCCN)NC(=O)[C@@H](CCCN)NC(=O)[C@@H](Cc2c[nH]c3ccccc23)NC(=O)[C@@H](Cc2ccc(O)cc2)NC(=O)[C@H](N)CO)[C@@H](C)OC(=O)CNC(=O)CNC(=O)[C@H](CC(N)=O)NC1=O [Compound 18] (H-[dS][dY][dW][dOrn][Orn]G[dOrn]WTINGG; ester 9-C) | >32 | >32 | >32 | >32 | 0.2 | >32 | >32
